Data set [1] has as its target T1, human AChE (hAChE), recombinant acetylcholinesterase (Homo sapiens, UniProt P22303).
T1 construct: made in house
Description: hAChE inhibition, modified Ellman's method. In kind it is biochemical. The following applies: for times more potent than reference (hAChE): 3a vs THA, 5d vs 7-MEOTA; for SI (selectivity index for hAChE): ratio IC50(hBChE)/IC50(hAChE). The protocol: Three series of tacrine-squaramide homodimers were tested for their inhibitory potential against human AChE (hAChE) and human BChE (hBChE) enzymes using modified spectrophotometric method of Ellman et al.. THA, 6-Cl-THA and 7-MEOTA were used as reference compounds. […].
(§1) Human plasmatic butyrylcholinesterase (BChE; EC 3.1.1.8) and recombinant acetylcholinesterase (AChE; 3.1.1.7) were prepared at the Department of Toxicology and Military Pharmacy. 5,5′-dithiobis(2-nitrobenzoic acid) (Ellman’s reagent, DTNB), phosphate buffer (PB, pH 7.4), acetylthiocholine (ATC) and butyrylthiocholine (BTC), were purchased from Sigma-Aldrich, Prague, Czech Republic. For measuring purposes – polystyrene Nunc 96-well microplates with flat bottom shape (ThermoFisher Scientific, USA) were utilized.
(§2) All the assays were carried out in 0.1 M KH2PO4/K2HPO4 buffer, pH 7.4. Enzyme solutions were prepared at 2.0 units/mL in 2 mL aliquots. The assay medium (100 µL) consisted of 40 µL of 0.1 M phosphate buffer (pH 7.4), 20 µL of 0.01 M DTNB, 10 µL of the enzyme, and 20 µL of 0.01 M substrate (ATC/BTC iodide solution).
(§3) Tested compounds were preincubated for 5 min. The reaction was started by immediate addition of 20 µL of the substrate. The activity was determined by measuring the increase in absorbance at 412 for AChE/BChE at 37 °C at 2 min intervals - using a Multi-mode microplate reader Synergy 2 (Winooski, VT, USA). Each concentration was assayed in triplicate. Software GraphPad Prizm 5 (San Diego, CA, USA) was used for the statistical data evaluation.
In general terms: Ellman's reagent forms a yellow product with free thiols.

The target in data set [2] is human BChE (hBChE), human plasmatic butyrylcholinesterase (Homo sapiens, UniProt P06276). Description: hBChE inhibition, modified Ellman's method. The class given is biochemical. The protocol: Three series of tacrine-squaramide homodimers were tested for their inhibitory potential against human AChE (hAChE) and human BChE (hBChE) enzymes using modified spectrophotometric method of Ellman et al.. THA, 6-Cl-THA and 7-MEOTA were used as reference compounds.
human BChE (hBChE), human plasmatic butyrylcholinesterase, sequence (P06276 29-602): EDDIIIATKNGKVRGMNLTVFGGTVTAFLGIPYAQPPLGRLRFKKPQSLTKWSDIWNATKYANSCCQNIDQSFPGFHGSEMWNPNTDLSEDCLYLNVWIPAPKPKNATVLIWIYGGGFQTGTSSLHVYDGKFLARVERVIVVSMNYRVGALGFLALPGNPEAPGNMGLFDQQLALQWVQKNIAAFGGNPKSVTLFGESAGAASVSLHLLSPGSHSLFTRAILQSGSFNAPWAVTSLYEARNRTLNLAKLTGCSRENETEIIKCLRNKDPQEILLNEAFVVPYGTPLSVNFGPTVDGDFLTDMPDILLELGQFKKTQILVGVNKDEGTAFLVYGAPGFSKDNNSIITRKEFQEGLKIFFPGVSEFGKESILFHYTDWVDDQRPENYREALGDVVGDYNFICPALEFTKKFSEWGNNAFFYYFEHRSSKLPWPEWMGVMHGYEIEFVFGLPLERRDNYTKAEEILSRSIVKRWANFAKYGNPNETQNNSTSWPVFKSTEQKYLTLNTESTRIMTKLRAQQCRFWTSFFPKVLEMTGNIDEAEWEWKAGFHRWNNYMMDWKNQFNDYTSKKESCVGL
as §1, §2, §3

Data set [3] can be described thus: in vitro. Conditions: human. As to the method: The human origin cell line HepG2 (ATCC, Mannassas, VA, USA) isolated from liver hepatocellular carcinoma was used to evaluate cytotoxicity of tested compounds. The cells were cultivated in Dublecco’s modified Eagle’s medium (DMEM; Biosera, Nuaille, France) supplemented with 10% fetal bovine serum (Biosera) and 1% penicillin-streptomycin antibiotic solution (Sigma-Aldrich, St. Louis, MO, USA), incubated at 37 °C in a CO2 incubator (Binder CO2 incubator BC 160, Tuttlingen, Germany) and routinely passaged by trypsinization at 75–85% confluence.
The final concentration of DMSO was less than 0.25% per well.
After 24-h incubation, the medium containing serially diluted substances was aspirated from each well and replaced by 100 µL of fresh medium containing MTT (0.5 mg/mL). Plates were subsequently incubated at 37 °C in CO2 incubator for 45 min. The medium containing MTT was then aspirated and formazan dissolved in 100 μL of DMSO. The optical density of each well was measured using Synergy 2 Multi-Mode Microplate Reader (BioTek Instruments, Inc., Winooski, VT, USA) at 570 nm. The cell viability was expressed as the percentage of untreated control. Each experiment was performed in triplicate and repeated three independent times.
The IC50 values were expressed as a mean ± standard error of the mean (SEM).

For data set [4] the following is noted: for Pe: PAMPA, PBS pH 7.4; for BBB permeation prediction in words: PAMPA-BBB; for CNS (+/−) predicted BBB permeation: class from Pe. From the text: An important feature for drugs targeting the brain is their ability to cross the BBB. The parallel artificial membrane permeability assay (PAMPA) is a high-throughput screening tool applicable for prediction of passive transport across BBB [57]. […] These include mainly (i) the different composition of the human phospholipid bilayer may cause deviation in predicted permeability, (ii) omitting the absorption of compounds that are actively transported by influx transporters and pumped-out by various efflux mechanisms with the glycoprotein P at the forefront or (iii) transport through the paracellular route which is mostly exploited by small […] molecules. Even considering these drawbacks, PAMPA-BBB is conceived as very simple but powerful tool for BBB prediction.
PAMPA (the parallel artificial membrane permeability assay) is a high-throughput screening tool applicable for prediction of the passive transport of potential drugs across the blood-brain barrier (BBB). In this study, it has been used as a non-cell-based in vitro assay carried out in a coated 96-well membrane filter. The filter membrane of the donor plate was coated with PBL (Polar Brain Lipid, Avanti, USA) in dodecane (4 µl of 20 mg/mL PBL in dodecane) and the acceptor well was filled with 300 µl of phosphate buffer saline, (PBS pH 7.4; VA). The tested compounds were dissolved first in DMSO and then diluted with PBS pH 7.4 to reach the final concentrations 50–500 µM in the donor well. […] In principle, test compound diffuse from the donor well through the polar brain lipid membrane (area = 0.28 cm^2) to the acceptor well. The concentration of the tested compound in both donor and the acceptor wells were assessed after 3, 4, 5 and 6 h of incubation in quadruplicate using the UV plate reader Synergy HT (Biotek, USA) at the maximum absorption wavelength of each compound (n = 3). Besides that, the solution of theoretical compound concentration, simulating the equilibrium state, established if the membrane was ideally permeable was prepared and assessed as well.

Data set [5] concerns the target T2, hAChE (Homo sapiens, UniProt P22303).
T2 construct: made in house
Description: Kinetic study of AChE inhibition. The class given is biochemical. The protocol:
Kinetic study was performed in order to describe the interactions of the compounds 4b and 3e with hAChE and hBChE, respectively. Inhibition kinetics were elucidated from velocity curves that were measured at several concentrations of the corresponding substrate (AChE—acetylthiocholine, BChE—butyrylthiocholine) and tested compounds. The type of enzyme inhibition and corresponding kinetic parameters (Ki and Ki’) were determined by nonlinear regression analysis. Results for each type model of inhibition (competitive, non-competitive, uncompetitive and mixed) were compared by sum-of-squares F-test. […].
The kinetic study of AChE and BChE was performed by using the above-mentioned modified Ellman’s method. The values of Vmax and Km of the Michaelis-Menten kinetics as well as the values of Ki and Ki’ were calculated by nonlinear regression from the substrate velocity curves. Linear regression was used for calculation of Lineweaver-Burk plots. All calculations were performed using GraphPad Prism software version 6.07 for Windows (San Diego, CA, USA).

Setting [6] is: mean of at least three experiments, read-out: IC50 hBChE.

Where two headings read alike, the source gives them in different places. Bounds are passed on as bounds.

T1 sequence (P22303 32-614): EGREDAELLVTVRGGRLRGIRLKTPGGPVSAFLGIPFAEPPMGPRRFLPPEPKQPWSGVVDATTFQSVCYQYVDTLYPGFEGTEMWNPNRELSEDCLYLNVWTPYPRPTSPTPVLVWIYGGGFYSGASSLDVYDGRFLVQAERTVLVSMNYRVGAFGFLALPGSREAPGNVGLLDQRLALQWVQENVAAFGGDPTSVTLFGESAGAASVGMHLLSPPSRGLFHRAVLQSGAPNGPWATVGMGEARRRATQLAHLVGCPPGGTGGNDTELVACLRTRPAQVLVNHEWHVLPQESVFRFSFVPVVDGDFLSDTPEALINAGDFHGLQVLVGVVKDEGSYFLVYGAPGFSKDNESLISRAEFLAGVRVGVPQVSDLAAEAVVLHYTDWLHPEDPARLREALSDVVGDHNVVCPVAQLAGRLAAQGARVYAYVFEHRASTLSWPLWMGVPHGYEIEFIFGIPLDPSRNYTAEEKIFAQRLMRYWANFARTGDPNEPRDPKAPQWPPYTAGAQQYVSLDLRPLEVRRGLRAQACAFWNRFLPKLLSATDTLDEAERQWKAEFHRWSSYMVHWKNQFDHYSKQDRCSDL
T2 sequence (P22303 32-614): as above

The term IC50 denotes the concentration needed to halve the response being measured. As to `COc1ccc2nc3c(c(NCCCCCNc4c(NCCCCCNc5c6c(nc7ccc(OC)cc57)CCCC6)c(=O)c4=O)c2c1)CCCC3` [Compound 5d, Bis({5-[(7-methoxy-1,2,3,4-tetrahydroacridin-9-yl)amino]pentyl}amino)cyclobut-3-ene-1,2-dione], in data set [1], the IC50 turned out to be 120 nM, the “times more potent than reference (hAChE)” value worked out at 83 times and the “SI (selectivity index for hAChE)” value is listed as 5.7. In addition, the IC50 in data set [2] was 680 nM. Moreover, the IC50 at 24 h in data set [3] worked out at 98000 nM. In data set [4], the Pe worked out at 1.3 ×10⁻⁶ cm/s, the “BBB permeation prediction in words” value was “cannot presumably cross the BBB” and the “CNS (+/−) predicted BBB permeation” value is reported as “CNS − (CNS −: low BBB permeation predicted with Pe (10^−6 cm·s^−1) < 2.0)”.

Turning to `O=c1c(NCCCCCCNc2c3c(nc4cc(Cl)ccc24)CCCC3)c(NCCCCCCNc2c3c(nc4cc(Cl)ccc24)CCCC3)c1=O` [Compound 4e, Bis({6-[(6-chloro-1,2,3,4-tetrahydroacridin-9-yl)amino]hexyl}amino)cyclobut-3-ene-1,2-dione], in data set [1], the IC50 was found to be 3.2 nM and the “SI (selectivity index for hAChE)” value is 170. In data set [2] (setting [6]), the IC50 came to 540 nM. For the same molecule, the IC50 at 24 h in data set [3] was over 64000 nM. In addition, in data set [4], the Pe is 17 ×10⁻⁶ cm/s, the “BBB permeation prediction in words” value is reported as “high probability to cross the BBB” and the “CNS (+/−) predicted BBB permeation” value is “CNS + (CNS +: high BBB permeation predicted with Pe (10^−6 cm·s^−1) > 4.0)”.

`O=c1c(NCCNc2c3c(nc4ccccc24)CCCC3)c(NCCNc2c3c(nc4ccccc24)CCCC3)c1=O` [Compound 3a, Bis({2-[(1,2,3,4-tetrahydroacridin-9-yl)amino]ethyl}amino)cyclobut-3-ene-1,2-dione]: in data set [1], the IC50 was 3.8 nM, the “times more potent than reference (hAChE)” value is 84 times and the “SI (selectivity index for hAChE)” value was determined as 16. For the same molecule, the IC50 in data set [2] was found to be 62 nM. Moreover, the IC50 at 24 h in data set [3] is over 256000 nM. Moreover, in data set [4], the Pe stood at 1.1 ×10⁻⁶ cm/s, the “BBB permeation prediction in words” value is given as “cannot presumably cross the BBB” and the “CNS (+/−) predicted BBB permeation” value is “CNS − (CNS −: low BBB permeation predicted with Pe (10^−6 cm·s^−1) < 2.0)”.

As usually defined, the Ki is the equilibrium dissociation constant of an inhibitor or competing ligand from its target. Lower therefore signals tighter binding. With `O=c1c(NCCCNc2c3c(nc4cc(Cl)ccc24)CCCC3)c(NCCCNc2c3c(nc4cc(Cl)ccc24)CCCC3)c1=O` [Compound 4b, Bis({3-[(6-chloro-1,2,3,4-tetrahydroacridin-9-yl)amino]propyl}amino)cyclobut-3-ene-1,2-dione], in data set [1], the IC50 stood at 2 nM and the “SI (selectivity index for hAChE)” value is given as 55. Further, in data set [1] (IC50 comparison with bis(7)-tacrine), the “times less active than bis(7)-tacrine (hAChE)” value is 2.5 times. For the same molecule, the IC50 in data set [2] came to 110 nM. Further, in data set [3], the IC50 at 24 h is over 64000 nM. The “Ki'” value in data set [5] (binding to enzyme-substrate complex, substrate acetylthiocholine) is 0.5 ± 0.2 nM. This molecule also came in with a Ki in data set [5] (binding to free enzyme, substrate acetylthiocholine) of 0.4 ± 0.2 nM. In addition, the type of inhibition result in data set [5] (nonlinear regression, sum-of-squares F-test, p < 0.05) is listed as “mixed type of inhibition”. In addition, in data set [4], the Pe is 2.5 ×10⁻⁶ cm/s, the “BBB permeation prediction in words” value is “uncertain BBB permeation” and the “CNS (+/−) predicted BBB permeation” value is on record as “CNS +/− (CNS +/−: BBB permeation uncertain with Pe (10^−6 cm·s^−1) from 4.0 to 2.0)”.

Take `COc1ccc2nc3c(c(NCCNc4c(NCCNc5c6c(nc7ccc(OC)cc57)CCCC6)c(=O)c4=O)c2c1)CCCC3` [Compound 5a, Bis({2-[(7-methoxy-1,2,3,4-tetrahydroacridin-9-yl)amino]ethyl}amino)cyclobut-3-ene-1,2-dione]: in data set [1], the IC50 was 170 nM and the “SI (selectivity index for hAChE)” value amounted to 0.7. In addition, the IC50 in data set [2] (setting [6]) amounted to 130 nM. The IC50 at 24 h in data set [3] is over 256000 nM. Besides, in data set [4], the Pe was 2.3 ×10⁻⁶ cm/s, the “BBB permeation prediction in words” value is on record as “uncertain BBB permeation” and the “CNS (+/−) predicted BBB permeation” value is “CNS +/− (CNS +/−: BBB permeation uncertain with Pe (10^−6 cm·s^−1) from 4.0 to 2.0)”.

Regarding `O=c1c(NCCCCNc2c3c(nc4cc(Cl)ccc24)CCCC3)c(NCCCCNc2c3c(nc4cc(Cl)ccc24)CCCC3)c1=O` [Compound 4c, Bis({4-[(6-chloro-1,2,3,4-tetrahydroacridin-9-yl)amino]butyl}amino)cyclobut-3-ene-1,2-dione], the concentration for half-maximal inhibition (IC50) in data set [1] was determined as 4.6 nM; in data set [2] (setting [6]), 170 nM. For the same molecule, the “SI (selectivity index for hAChE)” value in data set [1] came to 37. Moreover, in data set [3], the IC50 at 24 h is over 64000 nM.

Take `O=c1c(NCCCNc2c3c(nc4ccccc24)CCCC3)c(NCCCNc2c3c(nc4ccccc24)CCCC3)c1=O` [Compound 3b, Bis({3-[(1,2,3,4-tetrahydroacridin-9-yl)amino]propyl}amino)cyclobut-3-ene-1,2-dione]: in data set [1], the IC50 turned out to be 8.4 nM and the “SI (selectivity index for hAChE)” value is listed as 6.5. For the same molecule, the half-inhibitory concentration (IC50) in data set [2] (setting [6]) was found to be 55 nM. The IC50 at 24 h in data set [3] is over 32000 nM.

Turning to `COc1ccc2nc3c(c(NCCCCCCNc4c(NCCCCCCNc5c6c(nc7ccc(OC)cc57)CCCC6)c(=O)c4=O)c2c1)CCCC3` [Compound 5e, Bis({6-[(7-methoxy-1,2,3,4-tetrahydroacridin-9-yl)amino]hexyl}amino)cyclobut-3-ene-1,2-dione], in data set [1], the IC50 was found to be 150 nM and the “SI (selectivity index for hAChE)” value was 7.3. Moreover, the IC50 in data set [2] (setting [6]) came out at 1100 nM. Moreover, in data set [3], the IC50 at 24 h was 26000 nM.

With `O=c1c(NCCCCCNc2c3c(nc4cc(Cl)ccc24)CCCC3)c(NCCCCCNc2c3c(nc4cc(Cl)ccc24)CCCC3)c1=O` [Compound 4d, Bis({5-[(6-chloro-1,2,3,4-tetrahydroacridin-9-yl)amino]pentyl}amino)cyclobut-3-ene-1,2-dione], the half-maximal inhibitory concentration (IC50) in data set [1] was determined as 8.2 nM; in data set [2] (setting [6]), 310 nM. For the same molecule, in data set [1], the “SI (selectivity index for hAChE)” value is listed as 38. Further, the concentration for half-maximal inhibition (IC50) at 24 h in data set [3] is over 64000 nM.

(Values after article PMC6723352, “Exploring Structure-Activity Relationship in Tacrine-Squaramide Derivatives as Potent Cholinesterase Inhibitors” (Biomolecules, 2019).)
